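1) Cells in 96-well plates. 2) Compound, 48 h, 5 concentrations. 3) Linear interpolation between surrounding doses. 4) Unreached endpoint = highest concentration. TGI denotes the concentration required for complete inhibition of growth.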
How the values were obtained:
Assay in all cases: DTP human tumour cell line panel, 48 h
[1] = tested on: EKVX NSCLC
[2] = tested on: UACC-257 melanoma
[3] = tested on: HCT-15 colon
[4] = tested on: SK-OV-3 ovarian
[5] = tested on: SNB-75 CNS
[6] = tested on: MCF7 breast
[7] = tested on: A498 renal
[8] = tested on: MOLT-4 leukemia
[9] = tested on: HT29 colon
[10] = tested on: RXF 393 renal
[11] = tested on: SF-268 CNS
[12] = tested on: DU-145 prostate
[13] = tested on: SW-620 colon
[14] = tested on: PC-3 prostate
[15] = tested on: CAKI-1 renal
[16] = tested on: MDA-N
[17] = tested on: OVCAR-3 ovarian
[18] = tested on: BT-549 breast

Structure (SMILES)	TGI [1] [µM]	TGI [2] [µM]	TGI [3] [µM]	TGI [4] [µM]	TGI [5] [µM]	TGI [6] [µM]	TGI [7] [µM]	TGI [8] [µM]	TGI [9] [µM]	TGI [10] [µM]	TGI [11] [µM]	TGI [12] [µM]	TGI [13] [µM]	TGI [14] [µM]	TGI [15] [µM]	TGI [16] [µM]	TGI [17] [µM]	TGI [18] [µM]
CN1CCC2(CC1)C(=NC1CCCCC1)NC(=O)N2c1ccccc1	> 100	> 100	> 100	> 100	> 100	> 100	> 100	> 100	> 100	> 100	> 100	> 100	> 100	–	–	–	–	–
CC(C)c1ccc(/C=C2\CSCC3=C2N=C2SCC(=O)N2C3c2ccc(C(C)C)cc2)cc1 (configuration not stated)	> 100	> 100	> 100	> 100	> 100	> 100	–	> 100	> 100	–	> 100	> 100	> 100	> 100	> 100	> 100	> 100	–
CC(C)(C)C1=C(Br)C(OC(=O)C(F)(F)F)(C(C)(C)C)OP1(=O)c1ccccc1 (configuration not stated)	69	> 100	> 100	> 100	> 100	> 100	> 100	–	> 100	–	> 100	> 100	–	93.5	4.97	> 100	> 100	–
O=C(Nc1ccc(Cl)cc1)c1cc(S(=O)(=O)Nc2n[nH]c(=O)n2-c2ccccc2)c(S)cc1Cl	> 100	> 100	> 100	> 100	–	> 100	> 100	> 100	> 100	> 100	> 100	> 100	> 100	–	> 100	–	> 100	> 100
O=c1c2ccccc2nc(-c2ccccc2)n1NC(=S)Nc1cccc(Cl)c1	–	> 100	> 100	> 100	59.6	–	> 100	> 100	> 100	67.1	> 100	–	> 100	–	> 100	–	–	–
COc1ccc2c([nH]c3c(O)c(-c4c(C)cc5c([nH]c6c(CC=C(C)C)c(OC)ccc65)c4O)c(C)cc32)c1CC=C(C)C	–	> 100	> 100	> 100	> 100	–	> 100	> 100	> 100	> 100	> 100	–	> 100	–	> 100	–	> 100	–
CN(C)CN(C)c1nc(N(C)C)nc(N(C)CN(C)C)n1	> 100	> 100	68.2	> 100	> 100	–	> 100	69.5	> 100	38.9	> 100	–	57.3	–	> 100	–	> 100	–
COc1cc(C(C#N)NNc2nc(C)cc(=O)[nH]2)cc(OC)c1OC (configuration not stated)	–	> 100	> 100	> 100	> 100	–	–	–	> 100	> 100	> 100	–	> 100	–	> 100	–	> 100	–
CC(C)[Si](OCC1CC(C#N)OC(C)(C)O1)(C(C)C)C(C)C (configuration not stated)	66	42.7	79	73.4	> 100	–	19.1	41.1	37.5	31.9	82.7	–	36	–	69.5	–	29.4	–
CC(C)=NOC(=O)Nc1cccc2c1OCO2	> 100	> 100	> 100	> 100	> 100	> 100	> 100	> 100	> 100	> 100	> 100	> 100	> 100	> 100	> 100	–	> 100	–
CCCCC[C@H]1CCCCCCCCCC(=O)OC2C(O[C@@H]3OC(C)[C@H](OC(=O)[C@@H](C)CC)C(O[C@@H]4OC(C)[C@H](O)C(O)[C@@H]4O)[C@@H]3OC(=O)[C@H](C)CC)[C@H](OC3C(O)[C@@H](O)C(C)O[C@H]3O1)OC(CO)[C@H]2O (some centres not stated)	36.7	29.2	30.6	29.3	–	34.7	–	35.4	30.3	–	33.4	30	30.9	29.8	31.7	31.4	32	–
O=C1CC(c2ccccc2)S(=O)c2ccccc2N1 (configuration not stated)	> 100	> 100	> 100	> 100	> 100	> 100	–	> 100	> 100	–	> 100	> 100	–	> 100	> 100	–	> 100	> 100
CCOC(=O)CC(NC(=O)c1ccc(N=NN(C)C)cc1)C(=O)OCC (configuration not stated)	> 100	> 100	> 100	> 100	> 100	–	> 100	> 100	> 100	–	> 100	–	> 100	–	> 100	–	> 100	–

— PubChem BioAssay (NCI)
